The source of these data is patent US20110152225A1, “PPAR-Gamma Agonists for the Induction of Cationic Antimicrobial Peptide Expression as Immunoprotective Stimulants” (priority 2007, published 2011).

Experiment [1] has as its system HD-5. The experiment in a line: HD-5 defensin gene expression in intestinal epithelial cells (Caco-2), quantitative PCR. In kind it is cell-based, human. As to conditions: for activation of HD-5, as determined by quantitative PCR analysis: Caco-2 cells. How it is done:
(§1) Cultured intestinal epithelial cell lines, namely Caco-2 (of human origin) and ICcl2 (of mice origin), were treated with the GSK-3 inhibitor LiCl ([…]) or the phosphatase inhibitor calyculin (50 nM) followed or not by stimulation with the PPAR-gamma agonist such as rosiglitazone (1 microM).
(§2) The expression of defensin and known target genes of both Wnt and PPAR-gamma signaling pathways were investigated by quantitative real-time PCR. The activation of GSK3, beta-catenin, NF-kappaB, ERK1/2, SAPK/JNK and p38 was measured by specific immunoblotting.

Experiment [2] deals with PPAR-gamma. The experiment in a line: PPAR-gamma mRNA expression in colon of healthy mice. Format: in vivo. The following applies: healthy mice (n=5); enema during 10 days; 5-ASA 30 mM, R34, E1 and E2 1 mM.
For experiment [3], the system named is LL37. Put plainly: LL37 (defensin) mRNA expression in colon of healthy mice. Format: in vivo. As to conditions: for induction of defensin expression / potency in defensin expression induction compared to 5-ASA: conclusion on the in vitro and in vivo results; for colon defensin (LL37) mRNA expression: healthy mice (n=5), enema during 10 days, 5-ASA 30 mM, R34, E1 and E2 1 mM. The protocol:
[…] Post-mortem, total RNA was isolated from whole mice colonic tissues using Rneasy kit (Macherey Nagel, Hoerdt, France) according to the manufacturer's instructions. RNA quantification was performed using spectrophotometry. After treatment at 37° C. for 30 min with 20-50 units of RNase-free DNase I (Roche Diagnostics Corporation, Indianapolis, Ind., USA), oligo-dT primers (Roche Diagnostics Corporation, Indianapolis, USA) were used to synthesize single-stranded cDNA. mRNAs were quantified using SYBR green Master Mix (Applera, Courtaboeuf, France) with mouse specific oligonucleotides for LL37(S:5′-gCTgATTCTTTTgACATCAgCTgTAA-3′ AS:5′-gCCAgCCgggAAATTTTCT-3′) in a GeneAmp Abiprism 7000 (Applera, Courtaboeuf, France). In each assay, calibrated and no-template controls were included. Each sample was run in triplicate. SYBR green dye intensity was analyzed using the Abiprism 7000 SDS software (Applera, Courtaboeuf, France). All results were normalized to the unaffected housekeeping gene β-actin (S:5′-gggTCAgAAggATTCCTATg-3′; AS:5′ ggTCTCAAACATgATCTggg-3′).

The test system of experiment [4] is hBD1. The experiment in a line: hBD1 defensin mRNA expression in colonic epithelial Caco-2 cells. Format: cell-based, human. As to conditions: stimulated for 24 h. The text has this:
5-ASA was purchased at Sigma-Aldrich (St Quentin Fallavier, France). Rosiglitazone was synthesized in the laboratory according to standard procedures. The racemic compound 34 and the two enantiomers of the compound, 34-E1 and 34-E2 were provided by Giuliani SpA (Milano, Italy). Compound were re-suspended in DMEM medium (Gibco) and adjusted at pH=7 if necessary with 10N NaOH.
The colon carcinoma cell line Caco-2 (ATCC HTB-39) was routinely grown in DMEM supplemented respectively with 10% or 20% heat-FCS, and antibiotics. Cells were grown in monolayers, incubated at 37° C. in 5% CO2 and 95% relative humidity.
Cell were stimulated by 5-ASA, R34, 34-E1 and 34-E2 for 24 h. Total RNA was isolated from cells using Rneasy kit (Macherey Nagel, Hoerdt, France) according to the manufacturer's instructions. RNA quantification was performed using spectrophotometry. After treatment at 37° C. for 30 min with 20-50 units of RNase-free DNase I (Roche Diagnostics Corporation, Indianapolis, Ind., USA), oligo-dT primers (Roche Diagnostics Corporation, Indianapolis, USA) were used to synthesize single-stranded cDNA. mRNAs were quantified using SYBR green Master Mix (Applera, Courtaboeuf, France) with human specific oligonucleotides for hBD1(S:5′-[…]-3′; AS:5′-TTgTCTGAGATGGCCTCAggTggTAAC-3′) in a GeneAmp Abiprism 7000 (Applera, Courtaboeuf, France). In each assay, calibrated and no-template controls were included. Each sample was run in triplicate. SYBR green dye intensity was analyzed using the Abiprism 7000 SDS software (Applera, Courtaboeuf, France). All results were normalized to the unaffected housekeeping gene of human β-actin (S:5′-TCACCCACACTgTgCCCATCTACg-3′; AS:5′-CAgCggAACCgCTCATTgCCAATg-3′).

In experiment [5] the test system is colonies of Lactobacillus, Enterococcus or Bacteroides. As to conditions: U.S. Pat. No. 6,326,364; cited from earlier work.
The subject of experiment [6] is Clostridium bacterial cultures. The following applies: agar plates in aerobic and anaerobic conditions; U.S. Pat. No. 6,326,364; cited from earlier work.
Experiment [7] relates to cyclin-D1. Put plainly: Expression of Wnt/Tcf/beta-catenin target gene cyclin-D1, quantitative real-time PCR. Format: cell-based. The following applies: stimulation by both calyculin and rosiglitazone. The protocol: as §1, §2
Experiment [8] concerns beta-catenin. Put plainly: Stability of beta-catenin, immunoblotting. In kind it is cell-based. The following applies: stimulation by both calyculin and rosiglitazone. The protocol:
as §1, §2

Consider `CCOC(Cc1ccc(N)cc1)C(=O)O` (racemic) [Compound 39, (±)-2-ethoxy-3-(4′-aminophenyl)propionic acid], for which the “activation of HD-5, as determined by quantitative PCR analysis” value (shortened to “activation of HD-5, as determined”) in experiment [1] is reported as “activates HD-5”.

For `CCOC(Cc1cccc(N)c1)C(=O)O` (racemic) [Compound 40, (±)-2-ethoxy-3-(3′-aminophenyl)propionic acid], the “activation of HD-5, as determined” value in experiment [1] is “activates HD-5”.

In the case of `COC(Cc1ccc(N)cc1)C(=O)O` (racemic) [Compound R34, (±)-2-methoxy-3-(4′-aminophenyl)propionic acid], the “colon PPARy mRNA expression” value in experiment [2] is “induced”. Besides, in experiment [3], the “induction of defensin expression” value is reported as “induction of defensin expression” and the “colon defensin (LL37) mRNA expression” value was “induced”. In addition, the “expression of hBD1 (human defensin-1)” value in experiment [4] is recorded as “induce the expression of hBD1”.

Take `Nc1ccc(O)c(C(=O)O)c1` [Compound 5-ASA, 5-aminosalycilate, reference compound]: the “antimicrobial effect against colonies of Lactobacillus, Enterococcus or Bacteroides” value in experiment [5] is on record as “No effect”. In addition, the “colon PPARy mRNA expression” value in experiment [2] is “induced”. In experiment [6], the “antimicrobial effect against Clostridium bacterial cultures” value was “inhibitory effects”. The “activation of HD-5, as determined” value in experiment [1] is reported as “activates HD-5”. Besides, in experiment [3], the “induction of defensin expression” value is “induction of defensin expression” and the “colon defensin (LL37) mRNA expression” value is “induced”. Also, the “expression of hBD1 (human defensin-1)” value in experiment [4] is on record as “induce the expression of hBD1”.

Turning to `COc1ccc(N)cc1C(=O)NO` [Compound 14, 5-amino-N-hydroxy-2-methoxybenzamide], in experiment [1], the “activation of HD-5, as determined” value is reported as “activates HD-5”.

Take `CO[C@@H](Cc1cccc(N)c1)C(=O)O` [Compound 34-E1, (+) 2-S-methoxy-3-(3-aminophenyl)propionic acid]: the “colon PPARy mRNA expression” value in experiment [2] is on record as “induced”. Further, in experiment [3], the “induction of defensin expression” value is recorded as “induction of defensin expression”, the “potency in defensin expression induction compared to 5-ASA” value is “higher potency” and the “colon defensin (LL37) mRNA expression” value is reported as “induced”.

As to `CO[C@H](Cc1cccc(N)c1)C(=O)O` [Compound 34-E2, (−) 2-R-methoxy-3-(3-aminophenyl)propionic acid], the “colon PPARy mRNA expression” value in experiment [2] is given as “induced”. Also, in experiment [3], the “induction of defensin expression” value is given as “induction of defensin expression”, the “potency in defensin expression induction compared to 5-ASA” value is given as “higher potency” and the “colon defensin (LL37) mRNA expression” value is “induced”. The “gut defensin expression induction” value in experiment [3] (summary statement referring to FIGS. 8 & 9) is given as “particularly effective”. Further, in experiment [4], the “expression of hBD1 (human defensin-1)” value is “induce the expression of hBD1”.

In the case of `[Cl-].[Li+]` [LiCl, reference compound], the “rosiglitazone-induced defensin gene expression” value in experiment [1] (co-stimulation with LiCl) is “blocked”.

As to calyculin, in experiment [7], the “expression of Wnt/Tcf/beta-catenin target gene cyclin-D1” value is “markedly decreased”. Moreover, the “antimicrobial (defensin) gene expression induced by PPAR-gamma activators following co-stimulation” value in experiment [1] (co-stimulation by calyculin with rosiglitazone and other PPAR-gamma activators) was “synergized”. In experiment [8], the “stability of the beta-catenin” value is “markedly decreased”.
